Where “and” joins values, the source holds several entries; their conditions need not be identical. Equal values may be shown once. Read-outs that look alike come from different tables or passages of the source.
What was measured:
[1] = humans, background; cited from earlier work
[2] = Dual stable isotope cholesterol absorption study in healthy subjects (oral and intravenous tracers, plasma tracer ratio by GC/MS on day 3); assay type: in vivo, human; details: for Fa at 72 h: human, in vivo, po, 30 mg
Protocol: There is a paucity of information concerning cholesterol absorption in humans, and one prominent reason for this deficiency is the need to administer long-lived radioactive cholesterol tracers. To eliminate this hazard, we have developed a procedure, based on that of Zilversmit (Prof. Soc. Exp. Med. Biol. 140:862-865, 1972), employing stable isotopic tracers of cholesterol. One metabolically stable cholesterol tracer is administered orally and a second metabolically stable cholesterol tracer is administered intravenously on day 0. The ratio of the two tracers is determined after equilibration on about day 3 by gas chromatography-mass spectrometry (GC/MS) with selected ion monitoring. Ion current peaks corresponding to the first and second tracers are corrected for spillover From each other and from endogenous cholesterol. Percent cholesterol absorption is calculated as the ratio of the cholesterol tracers. The use of stable cholesterol isotopes for the study of cholesterol absorption is feasible, precise, safe and allows broad application of cholesterol absorption measurements in humans including women and children, thereby Facilitating clinical genetic studies in groups about which little current data is available.
There is a waiting period after the cholesterol tracers of this invention have been administered to a human subject. The waiting period allows the ingested cholesterol tracer to reach equilibrium in the subject's blood. The waiting period can range from 12 hours to about 5 days or more. However, it is preferred that the waiting period is from about 24 hours to about 96 hours. Following the waiting period, a blood sample is withdrawn from the subject and analyzed by GC/MS techniques to determine the relative amount of the two cholesterol tracers and the natural cholesterols in the sample. The GC/MS data is corrected to provide the actual relative amounts of the cholesterol tracers in the blood sample and a cholesterol absorption percentage is calculated based upon the amount of cholesterol tracers introduced into the body in relation to the amount in the blood samples.
Five healthy subjects (three men and two women, age 22-34) underwent two cholesterol absorption studies separated by 4-6 weeks. Out patient subjects received a National Cholesterol Education Program step I diet prepared in the metabolic kitchen of the Washington University Clinical Research Center for five days. Starting two days before testing and ending three days after testing. The metabolically stable cholesterols were given on day 0 with a meal containing 240 ml of whole milk as a source of fat to assure contraction of the gallbladder.
[23,24,25,26,27]-^13 C-cholesterol suitable for intra venous administration was prepared in a laminar flow hood. The labeled cholesterol was dissolved at 5 mg/ml in USP ethanol in a sterile container, water was added to 10% by volume in order to increase virucidal activity, and the solution was allowed to stand at room temperature for at least 6 hrs. The solvents were then sterilely removed and the cholesterol residue dissolved at 20 mg/ml in ethanol and passed through a 0.22 micron solvent-resistant filter. Aliquots were tested for sterility and dried aliquots for pyrogenicity using the Limulus assay, and the stock was kept frozen at -70° C. On the day of the experiment both the ^13 C-cholesterol and a small amount of 10% Intralipid were warmed to 37° C. and the ethanolic cholesterol was added dropwise to 4 volumes of Intralipid. After 5 minutes at 37° C. and 15 min. at room temperature the mixture was put through a 0.8 micron particulate filter. More than 94% of the labeled cholesterol passed through the filter. An aliquot containing approximately 15 mg. ^13 C-cholesterol was drawn into atared syringe and weighed. The syringe contents were injected over 5 minutes into a running saline infusion and the syringe was washed several times with saline. […]

[3] = Preparation of Intralipid infusate: filter passage and residual tracer in syringe and lines; assay type: physicochemical
Protocol: [23,24,25,26,27]-^13 C-cholesterol suitable for intra venous administration was prepared in a laminar flow hood. The labeled cholesterol was dissolved at 5 mg/ml in USP ethanol in a sterile container, water was added to 10% by volume in order to increase virucidal activity, and the solution was allowed to stand at room temperature for at least 6 hrs. The solvents were then sterilely removed and the cholesterol residue dissolved at 20 mg/ml in ethanol and passed through a 0.22 micron solvent-resistant filter. Aliquots were tested for sterility and dried aliquots for pyrogenicity using the Limulus assay, and the stock was kept frozen at -70° C. On the day of the experiment both the ^13 C-cholesterol and a small amount of 10% Intralipid were warmed to 37° C. and the ethanolic cholesterol was added dropwise to 4 volumes of Intralipid. After 5 minutes at 37° C. and 15 min. at room temperature the mixture was put through a 0.8 micron particulate filter. More than 94% of the labeled cholesterol passed through the filter. An aliquot containing approximately 15 mg. ^13 C-cholesterol was drawn into atared syringe and weighed. The syringe contents were injected over 5 minutes into a running saline infusion and the syringe was washed several times with saline.

[4] = parameters: species or system rabbits; details: rabbit, in vivo
Protocol: [26,26,26,27,27,27]-^2 H-cholesterol shown if FIG. 2 was prepared by Dr. Eric Stohler of Biodesign, Inc. The deuterium in the labeled cholesterol is located on stable terminal methyl groups of the side chain. When both: ^13 C-cholesterol and ^2 H-cholesterols were given intravenously or orally to rabbits there was no change in the plasma ratio of the two cholesterols over one week.

Row | labeled cholesterol passed through the filter ([3]; ethanolic cholesterol in 4 volumes of 10% Intralipid, 0.8 micron particulate filter) | solubilization of cholesterol ([3]; with use of Intralipid) | tracer cholesterol found in the syringe and intravenous lines ([3]; with use of Intralipid) | change in the plasma ratio of the two cholesterols [4] | SMILES | percent of cholesterol absorbed [1] | Fa at 72 h ([2]; mean of five healthy subjects, test 1, read-out: mean cholesterol absorption, Test 1) | Fa at 72 h ([2]; mean of five healthy subjects, test 2, 4-6 weeks later, read-out: mean cholesterol absorption, Test 2) | Fa at 72 h ([2]; test 1, five healthy subjects, read-out: cholesterol absorption, range between subjects) | cholesterol absorption, Test 1 ([2]; individual subjects 1-5, oral ^2 H-cholesterol about 30 mg, i.v. ^13 C-cholesterol about 15 mg, plasma at three days, 4320 min) | cholesterol absorption, Test 2 ([2]; individual subjects 1-5, second study 4-6 weeks after Test 1, plasma at three days, 4320 min) | mean cholesterol absorption, Test 1 ([2]; mean of five healthy subjects, test 1, 4320 min)
1 | – | – | – | – | CC(C)CCC[C@@H](C)[C@H]1CC[C@H]2[C@@H]3CC=C4C[C@@H](O)CC[C@]4(C)[C@H]3CC[C@]12C [cholesterol] | 15% to 75 | 59.3 ± 8.4% | 57.6 ± 8.2% | 47 to 71% | 59.4% and 62.2% and 70.5% and 47.4% and 57.1% | 62.4% and 58.0% and 67.2% and 45.4% and 55.0% | 59%
2 | More than 94% | quantitatively solubilized | less than 0.4% | no change | C[C@H](C[13CH2][13CH2][13CH]([13CH3])[13CH3])[C@H]1CC[C@H]2[C@@H]3CC=C4C[C@@H](O)CC[C@]4(C)[C@H]3CC[C@]12C [^13 C-cholesterol, [23,24,25,26,27]-^13 C-cholesterol] | – | – | – | – | – | – | –
3 | – | – | – | no change | [2H]C([2H])([2H])C(CCC[C@@H](C)[C@H]1CC[C@H]2[C@@H]3CC=C4C[C@@H](O)CC[C@]4(C)[C@H]3CC[C@]12C)C([2H])([2H])[2H] [^2 H-cholesterol, [26,26,26,27,27,27]-^2 H-cholesterol] | – | – | – | – | – | – | –
